From patent publication US9783536B2, “Nitrogen-containing heterocyclic compound or salt thereof” (FUJIFILM Corporation, priority 2013, dated 2017)
Like-named read-outs stand apart in the source and are kept apart here.

Assays:
human PI3Kα protein = molecular target: T1, human PI3Kα protein (Homo sapiens, UniProt P42336); assay: PI3Kα enzyme assay (ADP-Glo); format: biochemical; conditions: read-out: PI3Kα enzyme inhibitory activity
T1 construct: purchased Carna Biosciences, Inc; host or cells: baculovirus expression system
T1 sequence (P42336 whole entry): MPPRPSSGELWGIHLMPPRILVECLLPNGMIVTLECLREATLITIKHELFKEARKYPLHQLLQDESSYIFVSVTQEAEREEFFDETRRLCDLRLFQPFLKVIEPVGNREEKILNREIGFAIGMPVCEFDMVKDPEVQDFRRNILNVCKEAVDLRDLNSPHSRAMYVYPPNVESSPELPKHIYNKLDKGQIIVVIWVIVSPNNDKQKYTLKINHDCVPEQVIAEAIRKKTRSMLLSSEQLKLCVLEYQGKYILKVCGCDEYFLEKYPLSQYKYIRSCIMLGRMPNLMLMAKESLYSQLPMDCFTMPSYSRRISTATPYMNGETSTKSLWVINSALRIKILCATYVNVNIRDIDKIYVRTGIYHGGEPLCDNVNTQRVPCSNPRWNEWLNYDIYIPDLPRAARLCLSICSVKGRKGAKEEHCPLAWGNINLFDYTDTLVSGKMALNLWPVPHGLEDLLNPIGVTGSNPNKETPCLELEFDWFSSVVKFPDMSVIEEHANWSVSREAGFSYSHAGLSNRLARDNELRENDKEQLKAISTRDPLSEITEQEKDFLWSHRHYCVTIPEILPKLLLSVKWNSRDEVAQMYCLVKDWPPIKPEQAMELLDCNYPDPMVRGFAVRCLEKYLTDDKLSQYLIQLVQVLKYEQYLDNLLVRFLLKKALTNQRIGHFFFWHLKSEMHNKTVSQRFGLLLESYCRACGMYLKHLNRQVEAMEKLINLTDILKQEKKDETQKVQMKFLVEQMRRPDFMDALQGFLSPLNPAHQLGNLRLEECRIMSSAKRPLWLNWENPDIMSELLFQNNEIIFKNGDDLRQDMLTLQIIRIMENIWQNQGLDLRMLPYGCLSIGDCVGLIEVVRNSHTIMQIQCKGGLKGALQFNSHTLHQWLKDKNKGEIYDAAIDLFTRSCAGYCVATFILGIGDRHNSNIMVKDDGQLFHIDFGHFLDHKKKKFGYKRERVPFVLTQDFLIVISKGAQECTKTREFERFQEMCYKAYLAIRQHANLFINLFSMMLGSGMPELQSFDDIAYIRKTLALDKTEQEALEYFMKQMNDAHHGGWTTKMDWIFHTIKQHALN
T1 sequence (P27986 whole entry partner): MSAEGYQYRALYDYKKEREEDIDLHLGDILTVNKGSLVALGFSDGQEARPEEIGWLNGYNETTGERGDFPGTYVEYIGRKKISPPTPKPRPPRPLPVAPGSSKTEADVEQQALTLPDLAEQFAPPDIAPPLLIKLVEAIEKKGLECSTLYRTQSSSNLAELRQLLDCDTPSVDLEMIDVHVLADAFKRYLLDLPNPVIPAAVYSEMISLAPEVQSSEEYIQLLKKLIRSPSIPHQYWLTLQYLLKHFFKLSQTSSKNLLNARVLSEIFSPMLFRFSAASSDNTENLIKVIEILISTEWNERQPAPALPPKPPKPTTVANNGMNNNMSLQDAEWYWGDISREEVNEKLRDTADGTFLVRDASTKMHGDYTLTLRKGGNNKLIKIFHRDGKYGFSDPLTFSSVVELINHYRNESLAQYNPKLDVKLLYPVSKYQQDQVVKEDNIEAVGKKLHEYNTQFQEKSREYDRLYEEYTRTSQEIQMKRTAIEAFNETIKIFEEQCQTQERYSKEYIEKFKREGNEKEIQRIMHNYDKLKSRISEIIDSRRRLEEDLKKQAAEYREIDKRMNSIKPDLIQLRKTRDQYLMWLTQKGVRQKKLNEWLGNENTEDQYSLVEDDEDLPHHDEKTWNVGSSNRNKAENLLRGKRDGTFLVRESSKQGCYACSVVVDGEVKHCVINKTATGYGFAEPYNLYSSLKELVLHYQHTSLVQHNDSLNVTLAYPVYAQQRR
Outline: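 Biotinylated human PI3Kα (baculovirus-expressed, 4.5 nmol/L) pre-incubated 15 min with compound in Tris-HCl pH 7.5, MgCl2, BSA; reaction 60 min at 25° C with 50 μmol/L PIP2 and 100 μmol/L ATP final. ADP quantified by ADP-Glo luminescence; IC50 calculated.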

[1] = molecular target: T2, GST fusion human ERK2 protein (Homo sapiens, UniProt P28482); assay: ERK2 enzyme assay (2); format: biochemical; conditions: read-out: ERK2 enzyme inhibitory activity (2)
T2 construct: purchased Carna Biosciences, Inc; host or cells: E. coli expression system
T2 sequence (P28482 whole entry, the tested form may be a part): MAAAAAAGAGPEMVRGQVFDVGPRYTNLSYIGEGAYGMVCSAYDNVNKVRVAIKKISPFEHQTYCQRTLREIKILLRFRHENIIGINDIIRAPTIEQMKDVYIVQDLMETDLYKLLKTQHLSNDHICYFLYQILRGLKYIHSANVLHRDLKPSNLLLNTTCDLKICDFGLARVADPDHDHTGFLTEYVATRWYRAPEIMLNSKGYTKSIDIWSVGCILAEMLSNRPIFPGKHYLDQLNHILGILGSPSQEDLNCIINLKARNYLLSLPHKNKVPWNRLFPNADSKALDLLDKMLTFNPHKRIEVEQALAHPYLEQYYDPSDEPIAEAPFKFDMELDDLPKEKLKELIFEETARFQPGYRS
Outline: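 GST-tagged human ERK2 expressed in E. coli (1.25 nmol/L) was preincubated with compound for 15 min at room temperature in pH 7.5 Hepes buffer with MgCl2, DTT and Brij35. Reaction with FL-Peptide 8 (final 4.25 μmol/L) and ATP (final 1 mmol/L) ran 120 min at 25 °C; EDTA stopped it, and phosphorylated peptide was quantified by mobility-shift separation to derive IC50.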

Row | Compound | IC50 (human PI3Kα protein) [µM] | IC50 ([1]; ERK2 enzyme assay (2)) [µM] | IC50 [1] [µM]
1 | Cc1ccc(S(=O)(=O)Nc2cnc3ccc(Nc4cc(C(C)C)cnn4)nc3c2)cc1 [Example 0839, N-(6-((5-isopropylpyridazin-3-yl)amino)-1,5-naphthyridin-3-yl)-4-methylbenzene sulfonamide] | 10 to 50 | 1 to 10 | 
2 | CCCn1cc(-c2cnc3ccc(Nc4cc(C(C)C)cnn4)nc3c2)cn1 [Example 0441] | < 1 | < 1 | 
3 | CC(C)c1cnnc(Nc2ccc3ncc(N4CC5(COC5)C4)cc3n2)c1 [Example 0855] | < 1 | < 1 | 
4 | CCOC(=O)N1CCN(CCCn2cc(-c3cnc4ccc(Nc5cc(C(C)C)cnn5)nc4c3)cn2)CC1 [Example 0437, Ethyl 4-(3-(4-(6-((5-isopropylpyridazin-3-yl)amino)-1,5-naphthyridin-3-yl)-1H-pyrazol-1-yl)propyl)piperazine-1-carboxylate] | < 1 | < 1 | 
5 | CC(=O)Nc1ccc(-c2nn(C)cc2-c2cnc3ccc(Nc4cc(C(C)C)cnn4)nc3c2)cn1 [Example 0459] | < 1 | < 1 | 
6 | CC(C)c1cnnc(Nc2ccc3ncc(-c4cnn(CCCCl)c4)cc3n2)c1 [Example 0468] | < 1 | < 1 | 
7 | CC(C)c1cnnc(Nc2ccc3ncc(-c4cnn(CCCN5CC(C(=O)N6CCOCC6)C5)c4)cc3n2)c1 [Example 0689] | < 1 | < 1 | 
8 | Cc1ccc(-c2cnc3ccc(Nc4cc(C(C)C)cnn4)nc3c2)cn1 [Example 0597] | 1 to 10 | < 1 | 
9 | CC(C)c1cnnc(Nc2ccc3ncc(N4CCN(CC(F)(F)F)CC4)cc3n2)c1 [Example 0875] | 1 to 10 | < 1 | 
10 | CCc1nc(C)cn1-c1cnc2ccc(Nc3cc(C(C)C)cnn3)nc2c1 [Example 0514] | 1 to 10 | < 1 | 
11 | CC(C)c1cnnc(Nc2ccc3ncc(-c4cnn(CC5CCCCC5)c4)cc3n2)c1 [Example 0519, 7-(1-(Cyclohexylmethyl)-1H-pyrazol-4-yl)-N-(5-isopropylpyridazin-3-yl)-1,5-naphthyridine-2-amine] | 1 to 10 | < 1 | 
12 | CC(C)c1cnnc(Nc2ccc3ncc(-c4cn(C)nc4NC4COC4)cc3n2)c1 [Example 0831] | < 1 | < 1 | 
13 | CC(C)c1cnnc(Nc2ccc3ncc(-c4cn(C)nc4N4CCCCC4)cc3n2)c1 [Example 0936] | < 1 |  | < 1
14 | CC(C)c1cnnc(Nc2ccc3ncc(-c4cn(C)nc4Cc4ccccc4)cc3n2)c1 [Example 0828] | < 1 | < 1 | 
15 | CC(C)c1cnnc(Nc2ccc3ncc(-c4cnn(CCCN5CC(F)(F)C5)c4)cc3n2)c1 [Example 0692] | < 1 | < 1 | 
16 | Cc1nc2ccc(Nc3cc(C(C)C)cnn3)nc2cc1-c1cnn(C)c1 [Example 0849, N-(5-isopropylpyridazin-3-yl)-6-methyl-7-(1-methyl-1H-pyrazol-4-yl)-1,5-naphthyridine-2-amine] | 1 to 10 | < 1 | 
17 | CC(C)c1cnnc(Nc2ccc3ncc(-c4cnn(CCOC5CN(Cc6ccccc6)C5)c4)cc3n2)c1 [Example 0743] | < 1 | < 1 | 
18 | CC(=O)N1CCN(CCCn2cc(-c3cnc4ccc(Nc5cc(C(C)C)cnn5)nc4c3)cn2)CC1 [Example 0434] | < 1 | < 1 | 
19 | CC(C)c1cnnc(Nc2ccc3ncc(-c4cccnc4O)cc3n2)c1 [Example 0593] | 1 to 10 | < 1 | 
20 | CC(C)c1cnnc(Nc2ccc3ncc(N4CC(OCC(F)(F)F)C4)cc3n2)c1 [Example 0865] | 1 to 10 | 1 to 10 | 
21 | CCOc1cnnc(Nc2ccc3ncc(-c4cnn(C)c4)cc3n2)c1 [Example 0499] | < 1 | < 1 | 
22 | CC(C)c1cnnc(Nc2ccc3ncc(C4=CCOCC4)cc3n2)c1 [Example 0580] | < 1 | < 1 | 
23 | Cn1cc(-c2cnc3ccc(Nc4cc(C(C)(C)CO[Si](C)(C)C(C)(C)C)cnn4)nc3c2)cn1 [Example 0559, N-(5-(1-((tert-butyldimethylsilyl)oxy)-2-methylpropan-2-yl)pyridazin-3-yl)-7-(1-methyl-1H-pyrazol-4-yl)-1,5-naphthyridine-2-amine] | 10 to 50 | < 1 | 
24 | COC1(C)CN(CCCn2cc(-c3cnc4ccc(Nc5cc(C(C)C)cnn5)nc4c3)cn2)C1 [Example 0794, N-(5-isopropylpyridazin-3-yl)-7-(1-(3-(3-methoxy-3-methylazetidin-1-yl)propyl)-1H-pyrazol-4-yl)-1,5-naphthyridine-2-amine] | < 1 | < 1 | 
